In article PMC8333425, “Discovery of a dual Ras and ARF6 inhibitor from a GPCR endocytosis screen” (Nature Communications, 2021):

Assays:
[1] = system: ERK1/2 activation by AT1R; assay: Western blot of AT1R-mediated ERK1/2 activation in β-arrestin1/2 KO cells; assay type: cell-based, human; settings: for ERK1/2 activation by AT1R in β-arrestin1/2 KO cells: 50 μM
Protocol: HEK293SL cells (10^5 cells per well) were seeded in a poly-L-lysine-coated six-well plate and transiently transfected with 3 μg Flag-AT1R, HA-B2R or HA-β2AR and/or 500 ng Flag-MEK1-WT, Flag-MEK1-DD, Flag-BRAF-WT, Flag-BRAF-V600E, Flag-K-Ras-WT, Flag-K-Ras-G12V, HA-ARF6-WT, or HA-ARF6-T27N. Gαq/11 KO and βarr1/2 KO cells were seeded onto 100 mm dishes at a density of 10^6 cells per dish. Next day, cells were transfected with 3 μg AT1R alone or along with 500 ng of β-arrestin2 using PEI. After 18 h of transfection, cells were detached and re-seeded onto poly-L-lysine coated 12-well plates (~1.5–2 × 10^5cells/well) for subsequent experiments. Forty-eight hours post transfection, in a 37 °C water bath, cells were serum-starved for 30 min, pretreated with DMSO (0.1%) or compound 21/Rasarfin (50 µM or at indicated concentrations) for 30 min, then stimulated or not with the indicated ligand [AngII (1 µM), BK (1 µM), Iso (10 µM) or EGF (100 ng/ml)] at indicated times. Cells were put on ice, washed with PBS and solubilized in 2x laemmli buffer (250 mM Tris–HCl pH 6.8, 2% SDS (w/v), 10% glycerol (v/v), 0.01% bromophenol blue (w/v) and 5% β-mercaptoethanol (v/v)) by heating at 65 °C for 15 min. Lysates were resolved on 10 or 14% SDS-PAGE, transferred to nitrocellulose membranes and immunoblotted for p-ERK1/2, ERK1/2, p-Akt, Akt, HA, Myc, β-actin or FLAG. ImageLab 5.2 software was used to quantify the digital blots as fold of the phosphorylated protein over total protein, which were then normalized as indicated in the figure legends. Uncropped immunoblots are provided in the Source Data file.

Ras = Ras BRET sensor (Raf1-RBD-RlucII / rGFP-CAAX), AT1R-mediated; assay type: cell-based, human
Excerpt: Since 21 inhibited both ERK1/2 and Akt activation by GPCRs and EGFR, we looked at a common target involved in both pathways. The small G protein Ras is an upstream regulator of both Ras-RAF-MEK-ERK and PI3K/Akt signaling pathways[35],[36]. Therefore, we explored 21’s ability to inhibit Ras activity using GST-Raf1-Ras-binding domain (RBD) in a pull-down assay. A reduction of 60% in GTP-bound Ras was noticed in pulled-down from cells treated with 21 and stimulated with either AT1R or EGFR, as compared to vehicle-treated cells (Fig. 4a, b). Complementary to this in vitro assay, we generated a Ras BRET assay, using the Raf-Ras binding domain tagged with RlucII (Raf1-RBD-RlucII) and the rGFP at the PM (rGFP-CAAX) (Supplementary Fig. 3c), to assess 21’s effects on Ras activation kinetics. […] Overexpression of either the active form of Ras (G12V) or SOS1 anchored at the PM (SOS-CAAX) produced a robust basal BRET signal that was no longer modulated by receptor activation (Supplementary Fig. 3d). […] 21’s potency to inhibit ARF6 and Ras is also consistent with its relative efficacy for inhibiting AT1R internalization and MAPK, respectively, when used at 50 μM (e.g., around 7 and 70 times the respective IC50s) (Figs. 2e and 3a). We also assessed if 21 was acting as a pan small G protein inhibitor by testing its effect on Rho and Rac/Cdc42. […] To assess Rac/Cdc42 activity, we generated a Rac/Cdc42 BRET sensor that consisted of the PAK-CRIB domain fused to RlucII (PAK-CRIB-RlucII) and the rGFP-CAAX (Supplementary Fig. 3e). PAK-CRIB, which binds to active Rac/Cdc42, was recruited to the PM upon AngII stimulation of cells and generated a robust BRET signal, which was blocked by the overexpression of the DN Rac1-T17N. Overexpression of the constitutively active Rac1-Q61L increased the basal BRET, which was no longer modulated by AT1R stimulation (Supplementary Fig. 3f).
HEK293SL cells were seeded at a density of 7.5 × 10^5 cells per 100-mm dish and 24 h later, transiently transfected as such. For receptor internalization experiments, cells were transfected with 0.12 μg AT1R-RlucII, B2R-RlucII, or β2AR-RlucII and 0.48 μg of either rGFP-CAAX (to assess removal from the PM) or rGFP-FYVE (to assess accumulation in the endosomes). For β-arrestin recruitment assays, cells were transfected with 0.48 μg of receptor-YFP along with 0.12 μg of β-arrestin-RlucII. For β-arrestin/AP-2 binding experiments, cells were transfected with 1 μg Flag-AT1R, 1 μg β2-Adaptin-YFP, and 0.12 μg β-arrestin2-RlucII. For G protein activation, cells were transfected with 3 μg of sp-Flag-AT1R along with either 4.5 μg of the Gαq-polycistronic BRET sensor or 0.24 μg of the Gαi3-RlucII and 0.6 μg of GFP10-Gγ2 and Gβ1 sensors or 0.12 μg PKN-RBD-RlucII and 0.48 μg of rGFP-CAAX. For PKC activation, cells were transfected with 3 μg of sp-Flag-AT1R and 0.18 μg of the PKC sensor. For GTPase activation experiments, cells were transfected with 1 μg Flag-AT1R, 0.48 μg of rGFP-CAAX, and either 0.12 μg of GGA3-PBD-RlucII, PAK-CRIB-RlucII or Raf-RBD-RlucII. For biosensor validation experiments, cells were additionally transfected with 500 ng Flag-K-Ras-WT, Flag-K-Ras-G12V, Flag-K-Ras-SOS-CAAX, HA-ARF6-WT, HA-ARF6-T27N, Myc-Rac1-WT, Myc-Rac1-Q61L or Myc-Rac1-T17N. For PI3K/Akt activation experiments, cells were transfected with 0.48 μg of rGFP-CAAX and 0.12 μg of Akt (PH)-RlucII. After 18 h of transfection, the media was replaced and cells were divided for subsequent experiments. Cells were detached and seeded onto poly-L-ornithine-coated 96-well flat white bottom plates (BrandTech Scientific) at a density of 2.5 × 10^4 cells per well in media. The next day, cells were washed once with Tyrode’s buffer (140 mM NaCl, 2.7 mM KCl, 1 mM CaCl2, 12 mM NaHCO3, 5.6 mM D-glucose, 0.5 mM MgCl2, 0.37 mM NaH2PO4, 25 mM HEPES, pH 7.4) and left in Tyrode’s buffer. […]

CC(C)C(=O)N1CCN(c2ccc(NC(=O)c3cc4ccccc4o3)cc2Cl)CC1 [Compound 21]
ERK1/2 activation by AT1R in β-arrestin1/2 KO cells [1]: similarly inhibited ERK1/2 activation | ERK1/2 activation by AT1R in β-arrestin1/2 KO cells ([1]; listed as Rasarfin): totally blocked | ERK1/2 activation relative to time 0 (S_Fig.4a) ([1]; barr1/2 KO cells, Time 0 min): 1 | Mean Diff. DMSO - Comp 21 (Bonferroni's multiple comparisons test) ([1]; barr1/2 KO cells, Time 0 min): 0 | Mean Diff. DMSO - Comp 21 (Bonferroni's multiple comparisons test) ([1]; barr1/2 KO cells, Time 5 min): 8.446 | Mean Diff. DMSO - Comp 21 (Bonferroni's multiple comparisons test) ([1]; barr1/2 KO cells, Time 20 min): 10.85 | decrease of Ras activation following AT1R stimulation (Ras BRET assay) (Ras; 50 μM): 50–70% | IC50 (Ras; AT1R, dose-response): 700 nM | Ras BRET sensor signal (Fig.4c), single experiments (Ras; Comp 21 50 μM, Time 0 min): 0 | Ras MEAN (Fig.4d) (Ras; Log [Comp 21] (M) -4): 16.3196 | Ras MEAN (Fig.4d) (Ras; Log [Comp21] (M) -4.3): 30.5907 | Ras MEAN (Fig.4d) (Ras; Log [Comp21] (M) -5): 29.6351 | Ras MEAN (Fig.4d) (Ras; Log [Comp21] (M) -5.3): 36.1989 | Ras MEAN (Fig.4d) (Ras; Log [Comp 21] (M) -6): 54.1758 | Ras MEAN (Fig.4d) (Ras; Log [Comp21] (M) -6.3): 74.1367 | Ras MEAN (Fig.4d) (Ras; Log [Comp 21] (M) -7): 95.616
